Read-outs that look alike come from different tables or passages of the source.
Tests used:
[1] = biological target: T1, glucosylceramide synthase (Homo sapiens, UniProt Q16739); experiment: microsomal assay measuring conversion of ceramide to glucosylceramide by HPLC (GCS IC50); type: biochemical; details: concentration causing 50% inhibition of glucosylceramide synthase activity
T1 construct: Microsomes were isolated from A375 human melanoma cells; endogenous in cells; host or cells: A375 human melanoma cells (microsomal fraction, 100,000 g pellet)
T1 sequence (Q16739 1-394): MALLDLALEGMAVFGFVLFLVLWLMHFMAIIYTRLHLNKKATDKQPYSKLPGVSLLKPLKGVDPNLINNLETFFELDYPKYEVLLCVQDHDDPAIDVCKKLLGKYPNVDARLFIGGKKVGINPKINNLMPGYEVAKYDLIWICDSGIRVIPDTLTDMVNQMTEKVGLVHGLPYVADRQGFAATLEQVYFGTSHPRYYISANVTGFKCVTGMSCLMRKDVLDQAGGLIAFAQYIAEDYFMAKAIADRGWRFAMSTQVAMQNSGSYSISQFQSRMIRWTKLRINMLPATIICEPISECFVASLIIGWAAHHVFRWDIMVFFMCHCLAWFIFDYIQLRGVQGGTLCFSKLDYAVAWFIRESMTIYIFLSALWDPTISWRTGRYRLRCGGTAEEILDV
Outline: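 Microsomal preparation assayed for glucosylceramide synthase by direct HPLC measurement of ceramide conversion to glucosylceramide. GCS IC50 is the compound concentration giving 50% inhibition of enzyme activity.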

[2] = test system: GM3 expression on the cell surface, B16 mouse melanoma cells; experiment: cell based phenotypic assay, cell surface GM3 by antibody mediated immunofluorescence, B16 (GM3 B16 IC50); details: Mus musculus, 50% inhibition of GM3 expression on the cell surface
Outline: (§1)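 Both lines undergo the phenotypic GM3 assay, and viability is recorded from that same cell-based run.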

[3] = test system: GM3 expression on the cell surface, C32 human melanoma cells; experiment: cell based phenotypic assay, cell surface GM3 by antibody mediated immunofluorescence, C32 (GM3 C32 IC50); details: Homo sapiens, 50% inhibition of GM3 expression on the cell surface
Outline: as §1

B16 mouse melanoma cells = experiment: cell viability in the B16 cell-based assay (Viability, B16 IC50); details: Mus musculus
Outline: as §1

C32 human melanoma cells = experiment: cell viability in the C32 cell-based assay (Viability, C32 IC50); details: Homo sapiens, concentration causing 50% cell death, values greater than 10 represent a lack of cell death
Outline: as §1

[4] = B16 mouse melanoma cells, read-out: GM3 B16 IC50
[5] = C32 human melanoma cells, read-out: GM3 C32 IC50
[6] = B16, B16 cells, concentration causing 50% cell death, values greater than 10 represent a lack of cell death, read-out: Viability, B16 IC50
[7] = C32, C32 cells, read-out: Viability, C32 IC50
[8] = read-out: GM3 B16 IC50, B16 mouse melanoma cells
[9] = read-out: GM3 C32 IC50, C32 human melanoma cells
[10] = B16, read-out: Viability, B16 IC50
[11] = C32, read-out: Viability, C32 IC50, C32 cells

Row | IC50 [1] | IC50 [2, 4] | IC50 [3, 5] | Compound | IC50 (B16 mouse melanoma cells; [6]) | IC50 (C32 human melanoma cells; [7]) | IC50 [2, 8] | IC50 [3, 9] | IC50 (B16 mouse melanoma cells; [10]) | IC50 (C32 human melanoma cells; [11])
1 | 12300 nM | 4440 nM | 729 nM | CNC(=O)c1ccc(-c2ccc(C(C)(C)NC(=O)N3CCN4CCC3CC4)cc2)cc1 [Example 256, N-(2-(4′-(Methylcarbamoyl)biphenyl-4-yl)propan-2-yl)-1,4-diazabicyclo[3.2.2]nonane-4-carboxamide] | ≥ 10000 nM | ≥ 10000 nM |  |  |  | 
2 | 134 nM | 179 nM | 20.5 nM | CN(C)C(=O)c1ccc(-c2ccc(C(C)(C)NC(=O)OC3CCN4CCC3CC4)cc2)cc1 (stereo not drawn) [Example 259, 1-Azabicyclo[3.2.2]nonan-4-yl 2-(4′-(dimethylcarbamoyl)biphenyl-4-yl)propan-2-ylcarbamate] | ≥ 10000 nM | ≥ 10000 nM |  |  |  | 
3 | 8550 nM | 1640 nM | 302 nM | CN(C)C(=O)c1ccc(-c2ccc(C(C)(C)NC(=O)N3CCN4CCC3CC4)cc2)cc1 [Example 260, N-(2-(4′-(Dimethylcarbamoyl)biphenyl-4-yl)propan-2-yl)-1,4-diazabicyclo[3.2.2]nonane-4-carboxamide] | ≥ 10000 nM | ≥ 10000 nM |  |  |  | 
4 | 60.8 nM | 354 nM | 14.1 nM | CN(C)C(=O)c1ccc(-c2ccc(C(C)(C)NC(=O)NC3(C)CCN4CCC3CC4)cc2)cc1 (stereo not drawn) [Example 261, N,N-Dimethyl-4′-(2-(3-(4-methyl-1-azabicyclo[3.2.2]nonan-4-yl)ureido)propan-2-yl)biphenyl-4-carboxamide] | ≥ 10000 nM | 3160 nM |  |  |  | 
5 | 14.5 nM | 75 nM | 3.01 nM | CC(C)(NC(=O)OC1CCN2CCC1CC2)c1ccc(-c2ccc(C(=O)N3CCCCC3)cc2)cc1 (stereo not drawn) [Example 263, 1-Azabicyclo[3.2.2]nonan-4-yl 2-(4′-(piperidine-1-carbonyl)biphenyl-4-yl)propan-2-ylcarbamate] | ≥ 10000 nM | 1000 nM |  |  |  | 
6 | 399 nM | 284 nM | 22.7 nM | CC(C)(NC(=O)OC1CCN2CCC1CC2)c1ccc(-c2ccc(C(=O)N3CCOCC3)cc2)cc1 (stereo not drawn) [Example 266, 1-Azabicyclo[3.2.2]nonan-4-yl 2-(4′-(morpholine-4-carbonyl)biphenyl-4-yl)propan-2-ylcarbamate] | ≥ 10000 nM | 1000 nM |  |  |  | 
7 | 166 nM | 648 nM | 31.5 nM | CC(C)(NC(=O)NC1(C)CCN2CCC1CC2)c1ccc(-c2ccc(C(=O)N3CCOCC3)cc2)cc1 (stereo not drawn) [Example 268, 1-(4-Methyl-1-azabicyclo[3.2.2]nonan-4-yl)-3-(2-(4′-(morpholine-4-carbonyl)biphenyl-4-yl)propan-2-yl)urea] | ≥ 10000 nM | 1000 nM |  |  |  | 
8 | 23000 nM | 2160 nM | 518 nM | CC(C)(NC(=O)N1CCN2CCC1CC2)c1ccc(-c2ccc(C(=O)N3CCOCC3)cc2)cc1 [Example 269, N-(2-(4′-(Morpholine-4-carbonyl)biphenyl-4-yl)propan-2-yl)-1,4-diazabicyclo[3.2.2]nonane-4-carboxamide] | ≥ 10000 nM | ≥ 10000 nM |  |  |  | 
9 | 9.42 nM | 60.7 nM | 2.64 nM | CC(C)(NC(=O)OC1CCN2CCC1CC2)c1ccc(-c2ccc(C(=O)N3CCC(F)(F)CC3)cc2)cc1 (stereo not drawn) [Example 271, 1-Azabicyclo[3.2.2]nonan-4-yl 2-(4′-(4,4-difluoropiperidine-1-carbonyl)biphenyl-4-yl)propan-2-ylcarbamate] | ≥ 10000 nM | 316 nM |  |  |  | 

Continued, compound first:

Row | Compound | IC50 [1] | IC50 [2, 4] | IC50 [3, 5] | IC50 (B16 mouse melanoma cells; [6]) | IC50 (C32 human melanoma cells; [7]) | IC50 [2, 8] | IC50 [3, 9] | IC50 (B16 mouse melanoma cells; [10]) | IC50 (C32 human melanoma cells; [11])
10 | CNC(=O)c1ccc(-c2ccc(C(C)(C)NC(=O)NC3(C)CN4CCC3CC4)cc2)cc1 (stereo not drawn) [Example 253, N-Methyl-4′-(2-(3-(3-methylquinuclidin-3-yl)ureido)propan-2-yl)-[1,1′-biphenyl]-4-carboxamide] | 751 nM | 2000 nM | 201 nM | 2000 nM | 2000 nM |  |  |  | 
11 | CNC(=O)c1ccc(-c2ccc(C(C)(C)NC(=O)OC3CCN4CCC3CC4)cc2)cc1 (stereo not drawn) [Example 254, 1-Azabicyclo[3.2.2]nonan-4-yl (2-(4′-(methylcarbamoyl)-[1,1′-biphenyl]-4-yl)propan-2-yl)carbamate] | 600 nM | 650 nM | 63.8 nM | ≥ 10000 nM | ≥ 10000 nM |  |  |  | 
12 | CNC(=O)c1ccc(-c2ccc(C(C)(C)NC(=O)NC3(C)CCN4CCC3CC4)cc2)cc1 (stereo not drawn) [Example 255, N-Methyl-4′-(2-(3-(4-methyl-1-aza-bicyclo[3.2.2]nonan-4-yl)ureido)propan-2-yl)biphenyl-4-carboxamide] | 46.9 nM | 3420 nM | 20.1 nM | 6790 nM | 1000 nM |  |  |  | 
13 | CN(C)C(=O)c1ccc(-c2ccc(C(C)(C)NC(=O)OC3CN4CCC3CC4)cc2)cc1 (stereo not drawn) [Example 257, Quinuclidin-3-yl 2-(4′-(dimethylcarbamoyl)biphenyl-4-yl)propan-2-ylcarbamate] | 365 nM |  |  |  |  | 786 nM | 77.2 nM | ≥ 10000 nM | ≥ 10000 nM
14 | CN(C)C(=O)c1ccc(-c2ccc(C(C)(C)NC(=O)NC3(C)CN4CCC3CC4)cc2)cc1 (stereo not drawn) [Example 258, N,N-Dimethyl-4′-(2-(3-(3-methylquinuclidin-3-yl)ureido)propan-2-yl)biphenyl-4-carboxamide] | 281 nM | 2340 nM | 49 nM | ≥ 10000 nM | ≥ 10000 nM |  |  |  | 
15 | CC(C)(NC(=O)OC1CN2CCC1CC2)c1ccc(-c2ccc(C(=O)N3CCCCC3)cc2)cc1 (stereo not drawn) [Example 262, Quinuclidin-3-yl 2-(4′-(piperidine-1-carbonyl)biphenyl-4-yl)propan-2-ylcarbamate] | 19.6 nM |  |  |  |  | 112 nM | 3.5 nM | ≥ 10000 nM | 1000 nM
16 | CCC1(NC(=O)NC(C)(C)c2ccc(-c3ccc(C(=O)N4CCCCC4)cc3)cc2)CN2CCC1CC2 (stereo not drawn) [Example 264, 1-(3-Ethylquinuclidin-3-yl)-3-(2-(4′-(piperidine-1-carbonyl)biphenyl-4-yl)propan-2-yl)urea] | 13.7 nM | 67.4 nM | 2.13 nM | ≥ 10000 nM | 1000 nM |  |  |  | 
17 | CC(C)(NC(=O)OC1CN2CCC1CC2)c1ccc(-c2ccc(C(=O)N3CCOCC3)cc2)cc1 (stereo not drawn) [Example 265, Quinuclidin-3-yl 2-(4′-(morpholine-4-carbonyl)biphenyl-4-yl)propan-2-ylcarbamate] | 480 nM |  |  |  |  | 454 nM | 39.9 nM | ≥ 10000 nM | 2150 nM
18 | CC(C)(NC(=O)NC1(C)CN2CCC1CC2)c1ccc(-c2ccc(C(=O)N3CCOCC3)cc2)cc1 (stereo not drawn) [Example 267, 1-(3-Methylquinuclidin-3-yl)-3-(2-(4′-(morpholine-4-carbonyl)biphenyl-4-yl)propan-2-yl)urea] | 363 nM | 2770 nM | 119 nM | 565 nM | ≥ 10000 nM |  |  |  | 
19 | CC(C)(NC(=O)OC1CN2CCC1CC2)c1ccc(-c2ccc(C(=O)N3CCC(F)(F)CC3)cc2)cc1 (stereo not drawn) [Example 270, Quinuclidin-3-yl 2-(4′-(4,4-difluoropiperidine-1-carbonyl)biphenyl-4-yl)propan-2-ylcarbamate] | 25 nM |  |  |  |  | 67 nM | 3.56 nM | ≥ 10000 nM | 1000 nM
20 | CCC1(NC(=O)NC(C)(C)c2ccc(-c3ccc(C(=O)N4CCC(F)(F)CC4)cc3)cc2)CN2CCC1CC2 (stereo not drawn) [Example 272, 1-(2-(4′-(4,4-Difluoropiperidine-1-carbonyl)biphenyl-4-yl)propan-2-yl)-3-(3-ethylquinuclidin-3-yl)urea] | 16.4 nM | 24.9 nM | 2.15 nM | ≥ 10000 nM | 1000 nM |  |  |  | 
21 | CC(C)(NC(=O)OC1CN2CCC1CC2)c1ccc(-c2ccc(C(=O)N3CC(F)(F)C3)cc2)cc1 (stereo not drawn) [Example 273, Quinuclidin-3-yl 2-(4′-(3,3-difluoroazetidine-1-carbonyl)biphenyl-4-yl)propan-2-ylcarbamate] | 108 nM |  |  |  |  | 74 nM | 10.6 nM | ≥ 10000 nM | 3160 nM

Source: patent publication US12060349B2, “Glucosylceramide synthase inhibitors” (Genzyme Corporation, priority 2012, dated 2024)
